Results as given in US20240158446A1, “CYCLIC COMPOUND HAVING SELECTIVE INHIBITORY ACTION ON KRAS OVER HRAS AND NRAS” (CHUGAI SEIYAKU KABUSHIKI KAISHA, priority 2021, published 2024).
Where a SMILES comes first, the peptide text is derived from it. Bridges are numbered along the chain shown (N, C = ends). [ ]: non-standard residue; d: D form. The star is where a group is joined. hPhe(3,5-F2-4-CF3) = N[C@@H](CCc1cc(F)c(C(F)(F)F)c(F)c1)C(=O)O; hPhe(3-Cl-4-CF3) = N[C@@H](CCc1ccc(C(F)(F)F)c(Cl)c1)C(=O)O; NPrPhe(4-CF3) = CCCN[C@@H](Cc1ccc(C(F)(F)F)cc1)C(=O)O; NEtPhe(4-CF3) = CCN[C@@H](Cc1ccc(C(F)(F)F)cc1)C(=O)O; NMeGly(cPent) = CN[C@H](C(=O)O)C1CCCC1; Gly(cPent) = N[C@H](C(=O)O)C1CCCC1; NMeD = CN[C@@H](CC(=O)O)C(=O)O; NMeL = CN[C@@H](CC(C)C)C(=O)O; αMeV = CC(C)[C@](C)(N)C(=O)O; Pip = O=C(O)[C@@H]1CCCCN1; Morpholide = C1CN(*)CCO1; Ac5c = NC1(C(=O)O)CCCC1; Aze = O=C(O)[C@@H]1CCN1; Ac3c = NC1(C(=O)O)CC1; NEtG = CCNCC(=O)O; Sar = CNCC(=O)O

Assays:
[1] = biological target: GDP-bound HRAS wild-type protein (Homo sapiens, UniProt P01112); assay: Binding to HRAS by surface plasmon resonance (SPR), Single Cycle Kinetics; settings: SPR, GDP-bound HRAS wild-type protein vs GDP-bound KRAS wild-type protein
GDP-bound HRAS wild-type protein, sequence (P01112 whole entry): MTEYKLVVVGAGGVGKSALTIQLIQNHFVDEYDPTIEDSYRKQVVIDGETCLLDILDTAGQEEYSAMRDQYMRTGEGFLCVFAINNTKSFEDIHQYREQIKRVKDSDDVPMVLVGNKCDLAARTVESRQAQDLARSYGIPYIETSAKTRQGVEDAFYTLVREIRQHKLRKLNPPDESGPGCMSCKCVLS

[2] = system: human lung cancer strain NCI-H441;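 note: cell proliferation inhibition after four days measured by CellTiter-Glo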
[3] = biological target: GDP-bound NRAS wild-type protein (Homo sapiens, UniProt P01111); assay: Binding to NRAS by surface plasmon resonance (SPR), Single Cycle Kinetics; settings: SPR, GDP-bound NRAS wild-type protein vs GDP-bound KRAS wild-type protein
GDP-bound NRAS wild-type protein, sequence (P01111 whole entry): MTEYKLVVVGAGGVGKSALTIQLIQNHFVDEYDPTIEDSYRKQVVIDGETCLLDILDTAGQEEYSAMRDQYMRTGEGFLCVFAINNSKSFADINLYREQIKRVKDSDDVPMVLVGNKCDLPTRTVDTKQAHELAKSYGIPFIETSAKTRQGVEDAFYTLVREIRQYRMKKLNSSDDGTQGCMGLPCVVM

Structure (SMILES) | IC50 [2] | HRAS/KRAS (ratio of KD value for HRAS to KD value for KRAS) [1] | NRAS/KRAS (ratio of KD value for NRAS to KD value for KRAS) [3] | HRAS/KRAS (ratio of KD value with respect to HRAS to KD value with respect to KRAS) [1] | NRAS/KRAS (ratio of KD value with respect to NRAS to KD value with respect to KRAS) [3]
CCCN1C(=O)CN(C)C(=O)[C@@H]2CCN2C(=O)[C@H](C2CCCC2)NC(=O)[C@H](CC(C)C)N(C)C(=O)C[C@@H](C(=O)N2CCOCC2)N(C)C(=O)[C@H](C2CCCC2)N(C)C(=O)C2(CCCC2)NC(=O)[C@@H]2CCCN2C(=O)[C@H](CCc2ccc(C(F)(F)F)c(Cl)c2)NC(=O)CN(C)C(=O)[C@@H]1Cc1ccc(C(F)(F)F)cc1 [PP0306] ([NMeL][Gly(cPent)][Aze][Sar][NPrPhe(4-CF3)][Sar][hPhe(3-Cl-4-CF3)]P[Ac5c][NMeGly(cPent)][NMeD]-Morpholide; lactam N-11) | 142 nM | B (a compound having 3 or more and less than 10 is denoted as B) | B (a compound having 3 or more and less than 10 is denoted as B) | – | –
CCCN1C(=O)CN(C)C(=O)CN(CC)C(=O)[C@H]([C@@H](C)CC)NC(=O)[C@H](CC(C)C)N(C)C(=O)C[C@@H](C(=O)N2CCOCC2)N(C)C(=O)[C@H](C2CCCC2)N(C)C(=O)C2(CCCC2)NC(=O)[C@@H]2CCCCN2C(=O)[C@H](CCc2ccc(C(F)(F)F)c(Cl)c2)NC(=O)CN(C)C(=O)[C@@H]1Cc1ccc(C(F)(F)F)cc1 [PP0297] ([NMeL]I[NEtG][Sar][NPrPhe(4-CF3)][Sar][hPhe(3-Cl-4-CF3)][Pip][Ac5c][NMeGly(cPent)][NMeD]-Morpholide; lactam N-11) | 74.3 nM | C (A compound having a KD ratio of 0.1 or more and less than 3 is denoted as C) | B (a compound having 3 or more and less than 10 is denoted as B) | – | –
CCO[C@@H]1C[C@H]2C(=O)NC3(CCC3)C(=O)N(C)[C@@H](C3CCCC3)C(=O)N(C)[C@H](C(=O)N(C)C)CC(=O)N(C)[C@@H](CC)C(=O)N[C@@H]([C@@H](C)CC)C(=O)N(C)CC(=O)N(C)[C@H]3CCCCN(C3=O)[C@@H](Cc3ccc(C(F)(F)F)cc3)C(=O)N(C)CC(=O)N[C@@H](CCc3ccc4ccsc4c3)C(=O)N2C1 [PP0888] | 25.6 nM | B (a compound having 3 or more and less than 10 is denoted as B) | C (A compound having a KD ratio of 0.1 or more and less than 3 is denoted as C) | – | –
CCO[C@@H]1C[C@H]2C(=O)NC3(CCC3)C(=O)N(C)[C@@H](C3CCCC3)C(=O)N(C)[C@H](C(=O)N(C)C)CC(=O)N(C)[C@@H](Cc3ccccc3)C(=O)N[C@@H]([C@@H](C)CC)C(=O)N(C)CC(=O)N(C)[C@H]3CCCCCN(C3=O)[C@@H](Cc3ccc(C(F)(F)F)cc3)C(=O)N(C)CC(=O)N[C@@H](CCc3cc(F)c(C(F)(F)F)c(F)c3)C(=O)N2C1 [PP0672] | 19.7 nM | – | – | B (a compound having 3 or more and less than 10 is denoted as B) | B (a compound having 3 or more and less than 10 is denoted as B)
CCCN1C(=O)[C@@H]2CCN2C(=O)[C@@H]2CCN2C(=O)[C@H]([C@@H](C)CC)NC(=O)[C@H](CC(C)C)N(C)C(=O)C[C@@H](C(=O)N2CCOCC2)N(C)C(=O)[C@H](C2CCCC2)N(C)C(=O)C2(CCCC2)NC(=O)[C@@H]2CCCN2C(=O)[C@H](CCc2ccc(C(F)(F)F)c(Cl)c2)NC(=O)CN(C)C(=O)[C@@H]1Cc1ccc(C(F)(F)F)cc1 [PP0168] ([NMeL]I[Aze][Aze][NPrPhe(4-CF3)][Sar][hPhe(3-Cl-4-CF3)]P[Ac5c][NMeGly(cPent)][NMeD]-Morpholide; lactam N-11) | 26.6 nM | B (a compound having 3 or more and less than 10 is denoted as B) | C (A compound having a KD ratio of 0.1 or more and less than 3 is denoted as C) | – | –

Second part, led by results:

IC50 [2] | Structure (SMILES) | HRAS/KRAS (ratio of KD value for HRAS to KD value for KRAS) [1] | NRAS/KRAS (ratio of KD value for NRAS to KD value for KRAS) [3] | HRAS/KRAS (ratio of KD value with respect to HRAS to KD value with respect to KRAS) [1] | NRAS/KRAS (ratio of KD value with respect to NRAS to KD value with respect to KRAS) [3]
49.9 nM | CC[C@H](C)[C@@H]1NC(=O)[C@H](CC(C)C)N(C)C(=O)C[C@@H](C(=O)N2CCOCC2)N(C)C(=O)[C@H](C2CCCC2)N(C)C(=O)C2(CC2)NC(=O)[C@@H]2CCCN2C(=O)[C@H](CCc2ccc(C(F)(F)F)c(Cl)c2)NC(=O)CN(C)C(=O)[C@H](Cc2ccc(C(F)(F)F)cc2)N(CC)C(=O)CN(C)C(=O)CN(C)C1=O [PP0234] ([NMeL]I[Sar][Sar][NEtPhe(4-CF3)][Sar][hPhe(3-Cl-4-CF3)]P[Ac3c][NMeGly(cPent)][NMeD]-Morpholide; lactam N-11) | C (A compound having a KD ratio of 0.1 or more and less than 3 is denoted as C) | B (a compound having 3 or more and less than 10 is denoted as B) | – | –
170 nM | CCCN1C(=O)CN(C)C(=O)[C@@H]2CCN2C(=O)[C@H]([C@@H](C)CC)NC(=O)[C@H](CC(C)C)N(C)C(=O)C[C@@H](C(=O)N2CCOCC2)N(C)C(=O)[C@H](C2CCCC2)N(C)C(=O)[C@](C)(C(C)C)NC(=O)[C@@H]2CCCN2C(=O)[C@H](CCc2cc(F)c(C(F)(F)F)c(F)c2)NC(=O)CN(C)C(=O)[C@@H]1Cc1ccc(C(F)(F)F)cc1 [PP0773] ([NMeL]I[Aze][Sar][NPrPhe(4-CF3)][Sar][hPhe(3,5-F2-4-CF3)]P[αMeV][NMeGly(cPent)][NMeD]-Morpholide; lactam N-11) | – | – | B (a compound having 3 or more and less than 10 is denoted as B) | B (a compound having 3 or more and less than 10 is denoted as B)
